The record followed here is patent publication US5248677A, “Biogentic amine uptake inhibitors” (priority 1992, dated 1993).

Structures can show the parent of a compound that is named as a salt.

Common to all, as to format: biochemical, rat (Male Sprague-Dawley)
Experiment [1] concerns dopamine uptake. In words: DA (dopamine) uptake inhibition, synaptosomal preparation (striatum). The settings on record: rat striatum synaptosomes, 0.1 μM tritiated amine, 37° C., 4 minutes. On the procedure:
(§1) For the purpose of identifying compounds as biogenic amine uptake inhibitors capable of interacting with the uptake carrier, ligand-carrier binding assays were carried out as an initial sceen.
(§2) Male Sprague-Dawley derived rats, weighing about 180-250 g each (purchased from Sasco Animal Laboratories, Oregon, Wis.) were sacrificed by decapitation. The brains were immediately removed, placed on a chilled glass plate and dissected according to a modification of the method of Glowinski and Iversen (J. Glowinski and L. L. Iversen, J Neurochem, 1966, 13: 655-669). First, the rhombencephalon was separated by a transverse section and discarded. The rest of the brain was divided into two portions by making another transverse section at the level of the optic chiasma. The hypothalamus, which was used for norepinephrine uptake studies, was removed from the posterior part by using the anterior commissure as the horizontal reference point and a line between the posterior hypothalamus and mammillary bodies as the caudal limit. The striatum, which was used for dopamine uptake studies, was also dissected from the posterior portion using the external wall of the lateral ventricle as the internal limit and the corpus collosum as the external limit. The frontal parts of the striatum were removed from the anterior portion of the cerebrum and combined with the striatal tissue from the posterior segment. The cortex, which was used for serotonin uptake studies, was composed of the rest of the anterior portion of the cerebrum and the cortical surfaces removed from the posterior segment. The hypothalamus and the striatum each weighed about 100 mg or slightly less, whereas the cortex weighed up to 800 mg. The tissues were placed in a cold Potter-Elvehjem glass homogenizer with 5 (cortex) or 10 (hypothalamus) or 20 (striatum) volumes of ice-cold 0.32M sucrose, pH 7, and homogenized by hand. The homogenate was centrifuged (on a Multifuge®, American Scientific Products) at 2500 rpm for 10 minutes in a refrigerated room (~4° C.). The supernatant fraction containing the synaptosomes was decanted, mixed thoroughly and kept on crushed ice for use in the uptake studies.
(§3) Uptake studies were conducted according to the method of Snyder and Coyle (S. H. Snyder and J. T. Coyle, J Pharmacol Exp Ther, 1969, 165: 78-86) with minor modifications. Usually a 0.1 mL aliquot of the synaptosomal preparation was incubated in a mixture of 0.75 mL of modified Krebs-Ringerbuffer, 0.05 mL of the drug being tested, and 0.1 mL of a 1 μM solution of the labeled (tritiated) amine (final concentration 0.1 μM), for a total volume of 1 mL. The modified Krebs-Ringer bicarbonate buffer used in these studies contained 118 mM sodium chloride, 4 mM potassium chloride, 1.3 mM calcium chloride, 1.12 mM potassium dihydrogen phosphate, 1.2 mM magnesium sulfate and 24 mM sodium bicarbonate, with the addition of 5 mM glucose, 0.15 mM disodium EDTA, 12.5 μM nialamide and 1 mM ascorbic acid. Uptake was initiated by the addition of the tritiated amine and the mixture was incubated at 37° C. in a Dubnoff Metabolic Shaking Incubator for 4 minutes. A preincubation period was not included since it had been reported that results were similar with and without preincubation of the synaptosomal preparation (G. Vosmer, et al. Biochem Pharmacol, 1980, 24: 2557-2562). Control incubations without the test drug were conducted at 37° C. to determine total uptake and at 0° C. (in a crushed ice bath) to correct for the diffusion of the tritiated amine into the synaptosomes and/or binding.
(§4) Filtration was used to terminate uptake and collect the synaptosomes (C. A. Csernansky, et al. J Pharmacol Methods, 1985, 13: 187-191). In the filtration technique, the incubation mixture was diluted with ice-cold 0.9% aqueous sodium chloride solution and filtered through GF/B glass microfiber filters (Whatman) under reduced pressure. […]

Experiment [2] concerns norepinephrine uptake. In words: NE (norepinephrine) uptake inhibition, synaptosomal preparation (hypothalamus). The note with it: rat hypothalamus synaptosomes, 0.1 μM tritiated amine, 37° C., 4 minutes. The procedure:
as §1, §2, §3, §4

Experiment [3] has as its system 5-HT (serotonin) uptake. In words: 5-HT (serotonin) uptake inhibition, synaptosomal preparation (cortex). The note with it: 5-hydroxytryptamine, rat cortex synaptosomes, 0.1 μM tritiated amine, 37° C., 4 minutes. The procedure:
as §1, §2, §3, §4

What is called IC50 is the concentration needed to halve the response being measured. Read a high IC50 as a need for much substance. For `CN1CC2c3ccccc3CCC2C1Cc1cccc(F)c1` (stereo not drawn) [Example 16, cis-3-(3-Fluorophenyl)methyl-2,3,3a,4,5,9b-hexahydro-2-methyl-1H-benz[e]isoindole hydrochloride], the figures for the IC50 in experiment [1], in experiment [2] and in experiment [3] were 441 nM, 50 nM and 5450 nM, respectively.
On to `Fc1ccc(CC2NCC3c4ccccc4CCC23)cc1` (stereo not drawn) [Example 17, 3-(4-Fluorophenyl)methyl-2,3,3a,4,5,9b-hexahydro-1 H-benz[e]isoindole methanesulfonic acid salt], for which the figures for the IC50 in experiment [1], in experiment [2] and in experiment [3] were 9200 nM, 665 nM and 11000 nM, respectively.
As to `CN1CC2c3ccccc3CCC2C1Cc1ccc(F)cc1` (stereo not drawn) [Example 18, cis-3-(4-Fluorophenyl)methyl-2,3,3a,4,5,9b-hexahydro-2-methyl-1H-benz[e]isoindole methanesulfonic acid salt], the values for the IC50 in experiment [1], in experiment [2] and in experiment [3] were 4820 nM, 241 nM and 2910 nM, respectively.
In the case of `COc1cccc2c1CCC1C(Cc3ccccc3)NCC21` (stereo not drawn) [Example 21, cis-2,3,3a,4,5,9b-Hexahydro-6-methoxy-3-phenylmethyl-1H-benz[e]isoindole methanesulfonic acid salt], the IC50 in experiment [1] worked out at 5490 nM; in experiment [2] it was 758 nM; in experiment [3] it was 13100 nM.
For `COc1cccc2c1CCC1C2CN(C)C1Cc1ccccc1` (stereo not drawn) [Example 22, cis-2,3,3a,4,5,9 b-Hexahydro-6-methoxy-2-methyl-3-phenylmethyl-1H-benz[e]isoindole methanesulfonic acid salt], the results for the IC50 in experiment [1], in experiment [2] and in experiment [3] were 368 nM, 60 nM and 3440 nM, respectively.
With `CCN1CC2c3cccc(OC)c3CCC2C1Cc1ccccc1` (stereo not drawn) [Example 23, cis-2-Ethyl-2,3,3a,4,5,9 b-hexahydro-6-methoxy-3-phenylmethyl-1H-benz[e]isoindole methanesulfonic acid salt], the IC50 in experiment [1] was determined as 141 nM; in experiment [2], 28 nM; in experiment [3], 1430 nM.
For the molecule `COc1cccc2c1CCC1C2CN(C)C1Cc1cccc(F)c1` (stereo not drawn) [Example 24, cis-3-(3-Fluorophenyl)methyl-2,3,3a,4,5,9b-hexahydro-6-methoxy-2-methyl-1H-benz[e]isoindole hydrochloride], the values for the IC50 in experiment [1], in experiment [2] and in experiment [3] were 170 nM, 104 nM and 2470 nM, respectively.
On to `CCN1CC2c3cccc(OC)c3CCC2C1Cc1cccc(F)c1` (stereo not drawn) [Example 25, cis-2-Ethyl-3-(3-fluorophenyl)methyl-2,3,3a,4,5,9b-hexahydro-6-methoxy-1H-benz[e]isoindole hydrochloride], for which the concentration for half-maximal inhibition (IC50) in experiment [1] came to 197 nM; in experiment [2], 27 nM; in experiment [3] it was 1900 nM.
On to `COc1ccc2c(c1)CCC1C(Cc3cccc(F)c3)NCC21` (stereo not drawn) [Example 26, trans-3-(3-Fluorophenyl)methyl-2,3,3a,4,5,9b-hexahydro-7-methoxy-1H-benz[e]isoindole hydrochloride], for which the IC50 in experiment [1] came to 9040 nM; in experiment [2], 603 nM; in experiment [3], 2260 nM.
As for `COc1ccc2c(c1)CCC1C2CN(C)C1Cc1cccc(F)c1` (stereo not drawn) [Example 27, trans-3-(3-Fluorophenyl)methyl-2,3,3a,4,5,9b-hexahydro-7-methoxy-2-methyl-1H-benz[e]isoindole hydrochloride], the IC50 was found to be 4590 nM in experiment [1] (hydrochloride), 189 nM in experiment [2] and 2080 nM in experiment [3] (hydrochloride).
For `COc1ccc2c(c1)CCC1C2CN(C)C1Cc1cccc(F)c1` (stereo not drawn) [Example 28, cis-3-(3-Fluorophenyl)methyl-2,3,3a,4,5,9b-hexahydro-7-methoxy-2-methyl-1H-benz[e]isoindole hydrochloride], the IC50 in experiment [1] (hydrochloride) amounted to 213 nM; in experiment [2] (hydrochloride) it was 78 nM; in experiment [3] (hydrochloride), 1870 nM.
For the molecule `COc1ccc2c(c1OC)CCC1C(Cc3ccccc3)NCC21` (stereo not drawn) [Example 31, hydrochloride], the IC50 turned out to be 5420 nM in experiment [1], 592 nM in experiment [2] and 14000 nM in experiment [3].
Regarding `COc1ccc2c(c1OC)CCC1C2CN(C)C1Cc1ccccc1` (stereo not drawn) [Example 32, cis-6,7-Dimethoxy-2,3,3a,4,5,9b-hexahydro-2-methyl-3-phenylmethyl-1H-benz[e]isoindole hydrochloride], the IC50 in experiment [1] was 169 nM; in experiment [2], 113 nM; in experiment [3] it was 12700 nM.
For `CN1CC2c3ccc4c(c3CCC2C1Cc1cccc(F)c1)OCO4` (stereo not drawn) [Example 36, trans-3-(3-Fluorophenyl)methyl-2,3,3a,4,5,9b-hexahydro-2-methyl-6,7-methylenedioxy-1H-benz[e]isoindole methanesulfonic acid salt] the same measures were 952 nM, 62 nM and 964 nM.
With `COc1ccc(C)c2c1CCC1C2CN(C)C1Cc1ccccc1` (stereo not drawn) [Example 38, cis-2,9-Dimethyl-2,3,3a,4,5,9b-hexahydro-6-methoxy-3-phenylmethyl-1H-benz[e]isoindole hydrochloride], the IC50 stood at 1330 nM in experiment [1], 261 nM in experiment [2] and 3570 nM in experiment [3].
For `COc1ccc2c(c1)CCC1CC(Cc3ccccc3)N(C)CC21` (stereo not drawn) [Example 72, cis-8-Methoxy-2-methyl-1,2,3,4,4a,5,6,10b-octahydro-3-phenylmethyl-benz[f]isoquinoline hydrochloride] the same measures were 1010 nM, 64 nM and 5750 nM.
